{"source": "patent US4174390A", "about": "“Antibiotic A-7413 and process for preparation thereof” (Eli Lilly and Company, priority 1978, dated 1979)", "key": {"[1]": {"test_system": "Staphylococcus aureus strains", "assay": "standard agar-dilution tests (ICS method), S. aureus strains", "type": "cell-based", "procedure": "A special advantage of the A-7413 compounds is their ability to inhibit organisms which are resistant to other antibiotics. In Table V are summarized the results of standard agar-dilution tests (using the ICS method) wherein A-7413 factor A was tested against a variety of Staphylococcus aureus strains. Results are given as the minimal inhibitory concentration (MIC) at which inhibition of the S. aureus strain occurred. The results obtained with the known antibiotic vancomycin in the same test are included for comparison."}, "Streptococcus species": {"test_system": "Streptococcus species", "assay": "agar-dilution tests, penicillin-G-resistant Group-D-Streptococcus strains", "type": "cell-based, Streptococcus sp.", "procedure": "In Table VI are summarized the results of agar-dilution tests wherein A-7413 factor A was tested against a variety of Streptococcus species. These tests employed trypticase-soy agar plus blood, 10^-2 dilution of an overnight broth culture in 0.3% agar as an inoculum, giving approximately 5,000 bacteria per 7.5-mm of agar surface. Again, the results for vancomycin in the same test are reported for comparison. All strains tested are penicillin-G-resistant, Group-D-Streptococcus strains."}}}
{"smiles": "CN[C@H](CC(C)C)C(=O)N[C@H]1C(=O)N[C@@H](CC(N)=O)C(=O)N[C@H]2C(=O)N[C@H]3C(=O)N[C@H](C(=O)N[C@H](C(=O)O)c4cc(O)cc(O)c4-c4cc3ccc4O)[C@H](O)c3ccc(c(Cl)c3)Oc3cc2cc(c3O[C@@H]2O[C@H](CO)[C@@H](O)[C@H](O)[C@H]2O[C@H]2C[C@](C)(N)[C@H](O)[C@H](C)O2)Oc2ccc(cc2Cl)[C@H]1O", "note": "[Vancomycin, vancomycin]", "values": [{"measurement": "MIC", "setting": "[1]; S. aureus strain 3055, penicillin G susceptible", "result": 1, "unit": "µg/mL"}, {"measurement": "MIC", "setting": "[1]; S. aureus strain 3074, penicillin G resistant, methicillin susceptible", "result": 1, "unit": "µg/mL"}, {"measurement": "MIC", "setting": "[1]; S. aureus strain 3123, penicillin G susceptible", "result": 1, "unit": "µg/mL"}, {"measurement": "MIC", "setting": "[1]; S. aureus strain 3125, penicillin G and methicillin resistant", "result": 1, "unit": "µg/mL"}, {"measurement": "MIC", "setting": "[1]; S. aureus strain 3130, penicillin G and methicillin resistant", "result": 1, "unit": "µg/mL"}, {"measurement": "MIC", "setting": "[1]; S. aureus strain 3131, penicillin G and methicillin resistant", "result": 1, "unit": "µg/mL"}, {"measurement": "MIC", "setting": "[1]; S. aureus strain 3132, penicillin G and methicillin resistant", "result": 1, "unit": "µg/mL"}, {"measurement": "MIC", "setting": "[1]; S. aureus strain 3133, penicillin G and methicillin resistant", "result": 1, "unit": "µg/mL"}, {"measurement": "MIC", "setting": "[1]; S. aureus strain 3134, penicillin G and methicillin resistant", "result": 1, "unit": "µg/mL"}, {"measurement": "MIC", "setting": "[1]; S. aureus strain 3135, penicillin G and methicillin resistant", "result": 0.5, "unit": "µg/mL"}, {"measurement": "MIC", "setting": "[1]; S. aureus strain 3136, penicillin G and methicillin resistant", "result": 0.5, "unit": "µg/mL"}, {"measurement": "MIC", "setting": "[1]; S. aureus strain 3137, penicillin G and methicillin resistant", "result": 1, "unit": "µg/mL"}, {"measurement": "MIC", "setting": "[1]; S. aureus strain 3138, penicillin G and methicillin resistant", "result": 1, "unit": "µg/mL"}, {"measurement": "MIC", "setting": "[1]; S. aureus strain 3139, penicillin G and methicillin resistant", "result": 1, "unit": "µg/mL"}, {"measurement": "MIC", "setting": "[1]; S. aureus strain 3140, penicillin G and methicillin resistant", "result": 0.5, "unit": "µg/mL"}, {"measurement": "MIC", "setting": "[1]; S. aureus strain H43, penicillin G resistant, methicillin susceptible", "result": 1, "unit": "µg/mL"}, {"measurement": "MIC", "setting": "[1]; S. aureus strain H114, penicillin G resistant, methicillin susceptible", "result": 1, "unit": "µg/mL"}, {"measurement": "MIC", "setting": "[1]; S. aureus strain H290, penicillin G susceptible", "result": 1, "unit": "µg/mL"}, {"measurement": "MIC", "setting": "[1]; S. aureus strain H541, penicillin G resistant, methicillin susceptible", "result": 1, "unit": "µg/mL"}, {"measurement": "MIC", "setting": "Streptococcus species; Streptococcus sp. strain 238, trypticase-soy agar plus blood", "result": 2, "unit": "µg/mL"}, {"measurement": "MIC", "setting": "Streptococcus species; Streptococcus sp. strain 282, trypticase-soy agar plus blood", "result": 2, "unit": "µg/mL"}, {"measurement": "MIC", "setting": "Streptococcus species; Streptococcus sp. strain 8043, trypticase-soy agar plus blood", "result": 4, "unit": "µg/mL"}, {"measurement": "MIC", "setting": "Streptococcus species; Streptococcus sp. strain 9901, trypticase-soy agar plus blood", "result": 4, "unit": "µg/mL"}, {"measurement": "MIC", "setting": "Streptococcus species; Streptococcus sp. strain 9913, trypticase-soy agar plus blood", "result": 2, "unit": "µg/mL"}, {"measurement": "MIC", "setting": "Streptococcus species; Streptococcus sp. strain 9933, trypticase-soy agar plus blood", "result": 8, "unit": "µg/mL"}, {"measurement": "MIC", "setting": "Streptococcus species; Streptococcus sp. strain 9960, trypticase-soy agar plus blood", "result": 4, "unit": "µg/mL"}, {"measurement": "MIC", "setting": "Streptococcus species; Streptococcus sp. strain 12253P, trypticase-soy agar plus blood", "result": 2, "unit": "µg/mL"}, {"measurement": "MIC", "setting": "Streptococcus species; Streptococcus sp. strain 55992, trypticase-soy agar plus blood", "result": 4, "unit": "µg/mL"}, {"measurement": "MIC", "setting": "Streptococcus species; Streptococcus sp. strain Mitis, trypticase-soy agar plus blood", "result": 4, "unit": "µg/mL"}, {"measurement": "MIC", "setting": "Streptococcus species; Streptococcus sp. strain Shrigley, trypticase-soy agar plus blood", "result": 4, "unit": "µg/mL"}]}
